Values quoted from earlier work, collected in patent publication US12274789B2, “Oral compositions comprising methylprednisolone sodium succinate” (LABOMED PHARMACEUTICAL COMPANY S.A., priority 2018, dated 2025).

Settings: versus prednisolone

For C[C@H]1C[C@@H]2[C@H]([C@@H](O)C[C@@]3(C)[C@H]2CC[C@]3(O)C(=O)COC(=O)CCC(=O)[O-])[C@@]2(C)C=CC(=O)C=C12.[Na+] [methylprednisolone sodium succinate, pregna-1,4-diene-3,20dione,21-(3-carboxy-1-oxopropoxy)-11,17-dihydroxy-6-methyl-monosodium salt, (6α, 11β)], the “anti-inflammatory potency, ratio to prednisolone” value is listed as 5 to 4.
